Experimental findings from patent publication US6562862B1, “Methods of inhibiting physiological conditions associated with an excess of neuropeptide Y” (Eli Lilly and Company, priority 1994, dated 2003) are described below.

In general, IC50 refers to the concentration that inhibits the measured activity by half. Read a low IC50 as greater potency.

For this assay, the target named is T1, Y1 (Homo sapiens, UniProt P25929).
T1 construct: In this assay the cell line SK-N-MC was employed; endogenous in cells; host or cells: SK-N-MC cells (homogenate of scraped, pelleted cells), received from Sloane-Kettering Memorial Hospital
T1 sequence (P25929 1-384): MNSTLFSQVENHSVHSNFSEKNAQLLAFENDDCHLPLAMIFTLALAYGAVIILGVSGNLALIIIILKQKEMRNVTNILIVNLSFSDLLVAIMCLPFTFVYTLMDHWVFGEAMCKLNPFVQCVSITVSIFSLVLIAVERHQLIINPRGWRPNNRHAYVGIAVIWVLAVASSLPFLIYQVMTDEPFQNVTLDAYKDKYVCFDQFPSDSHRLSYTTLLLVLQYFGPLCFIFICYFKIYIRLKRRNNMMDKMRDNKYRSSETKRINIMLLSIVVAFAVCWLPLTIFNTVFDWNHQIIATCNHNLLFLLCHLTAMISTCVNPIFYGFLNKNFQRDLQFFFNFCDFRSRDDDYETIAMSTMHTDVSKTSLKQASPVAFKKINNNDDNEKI
Nature of the assay: Neuropeptide Y Binding Assay (125I-peptide YY, SK-N-MC cell homogenate). The settings on record: displacement of 0.1 nM 125I-peptide YY, SK-N-MC cells, about two hours at room temperature. Here is the method:
The biological activity of the compounds of the present invention was evaluated employing an initial screening assay which rapidly and accurately measured the binding of the tested compound to known neuropeptide Y receptor sites. Assays useful for evaluating neuropeptide Y receptor antagonists are well known in the art. See, e.g., U.S. Pat. No. 5,284,839, issued Feb. 8, 1994, which is herein incorporated by reference. See also, M. W. Walker, et al., Journal of Neurosciences, 8:2438-2446 (1988).
Neuropeptide Y Binding Assay
The ability of the compounds of the instant invention were assessed as to their ability to bind to neuropeptide Y using a protocol essentially as described in M. W. Walker, et al., supra. In this assay the cell line SK-N-MC was employed. This cell line was received from Sloane-Kettering Memorial Hospital, New York. These cells were cultured in T-150 flasks using Dulbecco's Minimal Essential Media (DMEM) supplemented with 5% fetal calf serum. The cells were manually removed from the flasks by scraping, pelleted, and stored at −70° C.
The pellets were resuspended using a glass homogenizer in 25 mM HEPES (pH 7.4) buffer containing 2.5 mM calcium chloride, 1 mM magnesium chloride, and 2 mg/L bacitracin. Incubations were performed in a final volume of 200 μl containing 0.1 nM ^125I-peptide YY (2200 Ci/mmol) and 0.2-0.4 mg protein for about two hours at room temperature.
Nonspecific binding was defined as the amount of radioactivity remaining bound to the tissue after incubating in the presence of 1 μM neuropeptide Y. In some experiments various concentrations of compounds were included in the incubation mixture.
Incubations were terminated by rapid filtration through glass fiber filters which had been presoaked in 0.3% polyethyleneimine using a 96-well harvester. The filters were washed with 5 ml of 50 mM Tris (pH 7.4) at 4° C. and rapidly dried at 60° C. The filters were then treated with melt-on scintillation sheets and the radioactivity retained on the filters were counted. The results were analyzed using various software packages. Protein concentrations were measured using standard coumassie protein assay reagents using bovine serum albumin as standards.
On to `COc1ccc2c(C(=O)c3ccc(OCCN4CCCCC4)cc3)c(-c3ccc(O)cc3)sc2c1` [R1=CH3, R2=1-piperidine, R3=H], for which the IC50 is roughly 12 µM.

`O=C(c1ccc(OCCN2CCCCCC2)cc1)c1c(-c2ccc(O)cc2)sc2cc(O)ccc12` [R1=H, R2=1-hexamethylenimino, R3=H] returned an IC50 of roughly 20 µM.

`O=C(c1ccc(OCCN2CCCC2)cc1)c1c(-c2ccc(O)cc2)sc2cc(O)ccc12` [R1=H, R2=1-pyrrolidine, R3=H] returned an IC50 of roughly 17 µM.

Compound `O=C(c1ccc(OCCN2CCCC2)cc1)c1c(-c2ccc(O)cc2)sc2cc(O)ccc12` had an IC50 of roughly 10 µM.
